The text below walks through data of ChEMBL document CHEMBL1143499, “Fused pyrimidine based inhibitors of phosphodiesterase 7 (PDE7): synthesis and initial structure-activity relationships” (Bioorg Med Chem Lett, 2005).

pIC50: −log10 of the molar value. Where only a bound is given, the exact number is not on record here.

One may read the pIC50 as −log10 of the IC50, conventionally taken in molar units. A low value points to a high IC50. For orientation: IC50 means the concentration needed to halve the response being measured. Read a low IC50 as greater potency.

Experiment [1] in a line: Inhibition of Phosphodiesterase 1.
Experiment [2] can be described thus: Inhibition of Phosphodiesterase 4.
Experiment [3] in a line: Inhibition of Phosphodiesterase 5.
The nature of experiment [4]: Inhibition of Phosphodiesterase 7.
Experiment [5] can be described thus: Relative binding to Phosphodiesterase 1 and Phosphodiesterase 7, ratio of IC50.
A short description of experiment [6]: Relative binding to Phosphodiesterase 3 and Phosphodiesterase 7, ratio of IC50.
Experiment [7] is described as follows: Relative binding to Phosphodiesterase 4 and Phosphodiesterase 7, ratio of IC50.
The nature of experiment [8]: Relative binding to Phosphodiesterase 5 and Phosphodiesterase 7, ratio of IC50.
The nature of experiment [9]: Relative binding to Phosphodiesterase 2 and Phosphodiesterase 7, ratio of IC50.
The next experiment addresses Phosphodiesterase 3 (Homo sapiens, UniProt Q14432+Q13370). The experiment is described as follows: Inhibition of Phosphodiesterase 3. It counts as protein assay.
In experiment [10] the target is cGMP-dependent 3',5'-cyclic phosphodiesterase (Homo sapiens, UniProt O00408). The experiment is described as follows: Inhibition of Phosphodiesterase 2.
Chain of cGMP-dependent 3',5'-cyclic phosphodiesterase (O00408 whole entry): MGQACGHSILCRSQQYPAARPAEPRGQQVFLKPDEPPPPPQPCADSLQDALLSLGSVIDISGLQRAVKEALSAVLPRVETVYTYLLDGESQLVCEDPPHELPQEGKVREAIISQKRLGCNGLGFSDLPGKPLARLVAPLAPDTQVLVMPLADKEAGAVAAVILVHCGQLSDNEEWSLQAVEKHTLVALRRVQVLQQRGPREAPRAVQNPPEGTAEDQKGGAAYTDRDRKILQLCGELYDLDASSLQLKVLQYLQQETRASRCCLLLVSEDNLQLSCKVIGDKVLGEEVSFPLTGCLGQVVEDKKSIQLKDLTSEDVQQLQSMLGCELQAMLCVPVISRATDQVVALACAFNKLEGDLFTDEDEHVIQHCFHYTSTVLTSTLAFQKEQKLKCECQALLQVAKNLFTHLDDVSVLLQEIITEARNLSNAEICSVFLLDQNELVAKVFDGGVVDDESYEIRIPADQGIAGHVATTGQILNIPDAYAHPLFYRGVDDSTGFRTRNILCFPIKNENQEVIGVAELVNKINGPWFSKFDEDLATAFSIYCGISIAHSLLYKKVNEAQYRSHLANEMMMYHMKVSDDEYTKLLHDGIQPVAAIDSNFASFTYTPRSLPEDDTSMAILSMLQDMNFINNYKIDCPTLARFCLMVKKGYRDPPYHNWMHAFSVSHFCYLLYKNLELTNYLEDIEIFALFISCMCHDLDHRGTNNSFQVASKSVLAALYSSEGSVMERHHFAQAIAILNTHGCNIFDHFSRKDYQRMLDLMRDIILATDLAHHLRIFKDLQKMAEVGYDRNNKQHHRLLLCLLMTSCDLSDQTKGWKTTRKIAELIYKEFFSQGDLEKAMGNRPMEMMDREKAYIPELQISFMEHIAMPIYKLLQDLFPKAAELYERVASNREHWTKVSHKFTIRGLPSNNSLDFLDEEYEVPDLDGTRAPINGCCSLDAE

As to `CCCc1nn(C)c2c(=O)[nH]c(-c3cc(S(=O)(=O)N4CCN(C)CC4)ccc3OCC)nc12`, the pIC50 in experiment [1] is less than 5.00; in [2], 5.34; in [3] it was 7.96; in [4], less than 5.00.

Turning to `CCOC(=O)c1sc(Nc2nc(N3CCN(C)CC3)c3c(n2)N(Cc2cc(OC)c(OC)c(OC)c2)CC3)nc1C`, the Ratio in experiment [5] was 156; in experiment [6], 315; in experiment [7], 189; in experiment [8] it was 104. The compound also showed a pIC50 in [4] of 7.70.

Regarding `CCOC(=O)c1sc(Nc2nc(N3CCNCC3)c3c(n2)N(Cc2cccnc2)CCC3)nc1C`, the Ratio amounted to 162 in experiment [5]; 33 in experiment [9]; 390 in experiment [6]; 35 in experiment [7]; 13 in experiment [8]. The pIC50 in [4] is 7.00.

Regarding `CCOC(=O)c1sc(Nc2nc(N3CCNCC3)c3c(n2)N(Cc2cc(OC)c(OC)c(OC)c2)CCC3)nc1C`, the Ratio in experiment [5] worked out at 166; in [9], 114; in experiment [6], 734; in experiment [7], 105; in [8], 182. The compound further gave a pIC50 in experiment [4] of 7.52.

Consider `CCOC(=O)c1sc(Nc2nc(NC)c3ncn(Cc4ccc(S(C)(=O)=O)cc4)c3n2)nc1C`, for which the Ratio in experiment [5] was 556; in experiment [6], 259; in [7], 3; in experiment [8] it was 8. Besides, the pIC50 in experiment [1] was 4.30; in experiment [2], 6.57; in [3] it was 6.14; in experiment [4] it was 7.05. In addition, the IC50 on Phosphodiesterase 3 turned out to be 23300 nM.

`CCOC(=O)c1sc(Nc2nc(N3CCNCC3)c3c(n2)N(Cc2ccc(S(C)(=O)=O)cc2)CC3)nc1C`: the Ratio in [5] stood at 352; in experiment [6], 1030; in experiment [7] it was 94; in experiment [8], 1. In experiment [4], this compound had a pIC50 of 7.70.

As to `CCOC(=O)c1sc(Nc2nc(N3CCN(C)CC3)c3c(n2)N(Cc2cc(OC)c(OC)c(OC)c2)CCC3)nc1C`, the Ratio in experiment [5] stood at 39; in [6] it was 174; in experiment [7], 27; in experiment [8], 9. The negative-log IC50 (pIC50) in [4] was 6.82.

Regarding `CCOC(=O)c1sc(Nc2nc(N3CCN(O)CC3)c3c(n2)N(Cc2ccccn2)CC3)nc1C`, the Ratio is 35 in experiment [5], 154 in experiment [6], 13 in experiment [7] and 7 in [8]. This compound gave a pIC50 in experiment [4] of 6.82.

Regarding `CCOC(=O)c1sc(Nc2nc(N3CCN(C)CC3)c3c(n2)N(Cc2cc(OC)c(OC)c(OC)c2)CCO3)nc1C`, the Ratio was 64 in [5], 206 in experiment [6], 67 in experiment [7] and 64 in [8]. Moreover, in experiment [4], the pIC50 was 7.15.

For the compound `CCOC(=O)c1sc(Nc2nc(NCc3ccc(S(N)(=O)=O)cc3)c3c(ncn3CC)n2)nc1C`, the pIC50 in experiment [1] was 6.02; in [10], 6.02; in experiment [2], 6.26; in experiment [3], 7.96; in experiment [4], 7.96. The same compound showed an IC50 against Phosphodiesterase 3 of 2970 nM.

On to `CCOC(=O)c1sc(Nc2nc(N3CCNCC3)c3c(n2)N(Cc2cc(OC)c(OC)c(OC)c2)CC3)nc1C`, for which the Ratio in experiment [5] stood at 576; in experiment [6], 1880; in experiment [7] it was 795; in experiment [8] it was 362. Moreover, the pIC50 in [4] is 8.22.

As to `CCOC(=O)c1sc(Nc2nc(N3CCNCC3)c3c(n2)N(Cc2ccc(S(C)(=O)=O)cc2)CCC3)nc1C`, the Ratio in [5] is 157; in [9], 27; in experiment [6], 392; in experiment [7], 54; in experiment [8], 8. Further, in experiment [4], the pIC50 was 7.22.

Consider `COc1ccc(C2CNC(=O)C2)cc1OC1CCCC1` (stereo not given) [ROLIPRAM], for which the negative-log IC50 (pIC50) in [1] was less than 5.00; in experiment [10] it was less than 5.00; in experiment [2], 6.13; in [3] it was less than 5.00; in experiment [4] it was less than 5.00. The compound further registered an IC50 on Phosphodiesterase 3 greater than 10000 nM.

Turning to `CCOC(=O)c1sc(Nc2nc(NC)c3c(n2)N(Cc2ccc(S(C)(=O)=O)cc2)CC3)nc1C`, the Ratio in [7] turned out to be 6. For the same compound, the pIC50 in [4] is 6.47.

As for `CCOC(=O)c1sc(Nc2nc(NCc3ccc(OC)c(OC)c3)c3c(ncn3CC)n2)nc1C`, the Ratio in experiment [5] is 1.5; in [9] it was 11; in experiment [6], 3.8; in experiment [7], 7.3; in experiment [8] it was 1.8. Also, the negative logarithm of the IC50 (pIC50) is 6.66 in [1], 5.77 in [10], 6.57 in [3] and 6.82 in experiment [4]. Also, the IC50 on Phosphodiesterase 3 worked out at 580 nM.

For the compound `CCOC(=O)c1sc(Nc2nc(N3CCNCC3)c3c(n2)N(Cc2cc(OC)c(OC)c(OC)c2)CCO3)nc1C`, the Ratio in [5] stood at 1170; in [6], 3850; in experiment [7], 1200; in [8], 1240. The compound also had a pIC50 in experiment [4] of 8.30.
